Source: PubChem BioAssay (NCI)
Where “and” joins values, the source holds several entries; their conditions need not be identical. Equal entries are not always repeated.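 Briefly, cells in 96-well plates were exposed to five compound concentrations for 48 h, and endpoints were estimated by linear interpolation. GI50 is the concentration that inhibits growth by half. TGI: total growth inhibition.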

Legend:
Assay in all cases: NCI anticancer screen, dose series, 48 h
786-0 renal = system: 786-0 renal
DU-145 prostate = system: DU-145 prostate
HCT-116 colon = system: HCT-116 colon
K-562 leukemia = system: K-562 leukemia
M14 melanoma = system: M14 melanoma
MOLT-4 leukemia = system: MOLT-4 leukemia
SK-OV-3 ovarian = system: SK-OV-3 ovarian
SNB-19 CNS = system: SNB-19 CNS
SNB-75 CNS = system: SNB-75 CNS
UO-31 renal = system: UO-31 renal

Structure (SMILES)	GI50 (786-0 renal)	TGI (786-0 renal)	GI50 (DU-145 prostate)	TGI (DU-145 prostate)	GI50 (HCT-116 colon)	TGI (HCT-116 colon) [µM]	GI50 (K-562 leukemia) [µM]	TGI (K-562 leukemia) [µM]	GI50 (M14 melanoma)	TGI (M14 melanoma)	GI50 (MOLT-4 leukemia)	TGI (MOLT-4 leukemia)	GI50 (SK-OV-3 ovarian)	TGI (SK-OV-3 ovarian)	GI50 (SNB-19 CNS)	TGI (SNB-19 CNS)	GI50 (SNB-75 CNS)	TGI (SNB-75 CNS)	GI50 (UO-31 renal)	TGI (UO-31 renal)
CCN1CCN(c2nc(NNC(=O)Cc3ccccc3)nc(N3CCN(C(c4ccccc4)c4ccccc4)CC3)n2)CC1	1.74 µM	3.14 µM	2.73 µM	7.2 µM	1.72 µM	3.13	1.8	4.38	1.83 µM	3.41 µM	2.63 µM	8.39 µM	2.09 µM	4.48 µM	3.35 µM	11.7 µM	1.78 µM	4.36 µM	1.39 µM	2.82 µM
C(=N\Nc1nnc2c(n1)[nH]c1ccccc12)/c1cccnc1		> 100 µM		> 100 µM		> 100		> 100		46.2 µM		> 100 µM		> 100 µM		> 100 µM		> 100 µM		> 100 µM
COc1ccc(C(=O)c2cc(OC)c(OC)c(OC)c2)cc1OC(C)=O	0.672 µM	> 100 µM	0.0324 µM	> 100 µM	0.0297 µM	> 100	< 0.01	> 100	< 0.0143 µM	> 100 µM	< 0.0199 µM	> 43.3 µM	0.0817 µM	> 100 µM	0.0381 µM	> 100 µM	< 0.0145 µM	> 100 µM	0.195 µM	> 100 µM
O=C(/C=C/c1ccc(C(F)(F)F)cc1)c1ccc(Nc2nc(NCCO)nc(NCCO)n2)cc1	3.12 µM	10.9 µM	4.03 µM	14.3 µM	1.79 µM	3.9	2.84	8.89	3.96 µM	17.1 µM	2.68 µM	10.7 µM	4 µM	15.1 µM			2.31 µM	13.6 µM	1.54 µM	4.33 µM
COc1ccc(-c2oc(=O)ccc2C#Cc2cc(OC)c(OC)c(OC)c2)cc1O	24.8 µM	> 100 µM	38.6 µM	> 100 µM	18.6 µM	> 100	13.8	> 100	26.9 µM	> 100 µM	3.17 µM	> 100 µM	30.7 µM	> 100 µM	31.4 µM	> 100 µM	20.8 µM	69.9 µM	30.9 µM	> 100 µM
Cn1nc(C(F)(F)F)c(-c2ccc(Cl)c(C(F)(F)F)c2)c1-c1ccc(OCc2ccc(Cl)cc2)cc1O	1.8 µM	7.12 µM	2.03 µM	7.47 µM	1.5 µM	5.46	1.84	7.47	1.81 µM	6.85 µM	1.81 µM	6.2 µM	1.42 µM	4.32 µM	2.03 µM	8.17 µM	1.45 µM	7.54 µM	1.26 µM	4.39 µM
COc1ccc(N2CCN(C(=O)c3ccccc3Nc3ccnc(C(F)(F)F)c3)CC2)cc1	> 100 µM	> 100 µM	> 100 µM	> 100 µM	37.7 µM	> 100	59.3	> 100	87.3 µM	> 100 µM	29.3 µM	> 100 µM	> 100 µM	> 100 µM	78.3 µM	> 100 µM	50.5 µM	> 100 µM	28 µM	> 100 µM
NC(=O)CCC(NC(=O)OCc1ccccc1)C(=O)OCC(=O)c1ccccc1 (configuration not stated)	> 100 µM	> 100 µM	> 100 µM	> 100 µM	> 100 µM	> 100	> 100	> 100			> 100 µM	> 100 µM	> 100 µM	> 100 µM	> 100 µM	> 100 µM	> 100 µM	> 100 µM	> 100 µM	> 100 µM
C[C@]12O[C@H](C[C@]1(O)CO)n1c3ccccc3c3c4c(c5c6ccccc6n2c5c31)CNC4=O	0.197 µM and 0.213 µM	1.45 µM and 1.89 µM	0.0881 µM and 0.11 µM	> 10 µM and 10.2 µM	0.0291 µM and 0.0408 µM			> 100	0.0159 µM and 0.0297 µM	0.492 µM and 1.97 µM	0.0386 µM and 0.0457 µM	0.451 µM and 1.18 µM	0.0183 µM and 0.0214 µM	0.146 µM and 0.521 µM	0.546 µM and 0.544 µM	4.08 µM and 3.22 µM	0.0492 µM and 0.0852 µM	0.556 µM and 1.3 µM	0.0238 µM and 0.0286 µM	1.08 µM and 1.29 µM
O=NC1c2cccc3cccc(c23)C1N=O (configuration not stated)		30.5 µM		> 100 µM		3.81		11.7		27.3 µM		> 100 µM		43.7 µM		43.4 µM		31.3 µM		11.7 µM
CN(C)C[C@H]1CC[C@@H](CN(C)C)C1=O		12.8 µM		> 50 µM		15.6		1.43		16.7 µM		4.69 µM		> 50 µM		> 50 µM		> 28.7 µM		23.1 µM
COc1ccc(OC)c(-c2nc3sccn3c2/C=C2/C(=O)Nc3ccc(Cl)cc32)c1	44.7 µM	> 100 µM	41.3 µM	> 100 µM	29.7 µM	> 100	29.9	> 100	23.1 µM	53.8 µM	22.1 µM	69.4 µM	13.6 µM	41.5 µM	33.6 µM	> 100 µM	19.7 µM	48.6 µM	23.6 µM	81.8 µM
Nc1ncnc2c1c(C(F)(F)F)cn2[C@@H]1O[C@H](CO)[C@@H](O)[C@H]1O	2.15 µM	> 100 µM	0.0945 µM	> 100 µM	0.213 µM	> 100	0.304	1.41	0.0419 µM	1.91 µM	0.324 µM	1.48 µM	2.49 µM	> 100 µM	0.793 µM	> 100 µM	0.708 µM	3.62 µM	0.928 µM	5.01 µM
COc1ccc(SC2c3cc(OC)c(OC)cc3Oc3nc(N)c(C#N)c(N)c32)cc1 (configuration not stated)	0.493 µM	1.73 µM	1.73 µM	3.11 µM	0.68 µM	2.16			1.21 µM	2.65 µM	0.315 µM	1.6 µM	1.81 µM	3.2 µM	1.32 µM	2.64 µM	1.31 µM	2.62 µM	1.34 µM	2.61 µM
